System: IGROV1 complex spheroids (HUVEC, MSC), viability % test/control
Assay: Anticancer human tumor IGROV1 cell line growth inhibition [GQUAD];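 note: spheroids exposed to compounds for 7 days before readout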;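 for viability, T/C: 100% = DMSO vehicle control viability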
Conditions: for IC50: curve of first compound; for viability, T/C: stronger effect = lower value
Method in brief: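 Viability of tumor cells grown as complex spheroids with endothelial and stromal cells, exposed to drug combinations. Top concentration at or near clinical Cmax (else 10 microM), diluted in half-log increments.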

[1] = second compound 0.0316 µM, first compound 0.0316 µM
[2] = second compound 0.0316 µM, first compound 0.1 µM
[3] = second compound 0.0316 µM, first compound 0.316 µM
[4] = second compound 0.0316 µM, first compound 1 µM
[5] = second compound 0.0316 µM, first compound 3.16 µM
[6] = second compound 0.0316 µM, first compound 10 µM
[7] = second compound 0.1 µM, first compound 0.0316 µM
[8] = second compound 0.1 µM, first compound 0.1 µM
[9] = second compound 0.1 µM, first compound 0.316 µM
[10] = second compound 0.1 µM, first compound 1 µM
[11] = second compound 0.1 µM, first compound 3.16 µM
[12] = second compound 0.1 µM, first compound 10 µM
[13] = second compound 0.316 µM, first compound 0.0316 µM
[14] = second compound 0.316 µM, first compound 0.1 µM
[15] = second compound 0.316 µM, first compound 0.316 µM
[16] = second compound 0.316 µM, first compound 1 µM
[17] = second compound 0.316 µM, first compound 3.16 µM
[18] = second compound 0.316 µM, first compound 10 µM
[19] = second compound 1 µM, first compound 0.0316 µM
[20] = second compound 1 µM, first compound 0.1 µM
[21] = second compound 1 µM, first compound 0.316 µM
[22] = second compound 1 µM, first compound 1 µM
[23] = second compound 1 µM, first compound 3.16 µM
[24] = second compound 1 µM, first compound 10 µM
[25] = second compound 3.16 µM, first compound 0.0316 µM
[26] = second compound 3.16 µM, first compound 0.1 µM
[27] = second compound 3.16 µM, first compound 0.316 µM
[28] = second compound 3.16 µM, first compound 1 µM
[29] = second compound 3.16 µM, first compound 3.16 µM
[30] = second compound 3.16 µM, first compound 10 µM
[31] = second compound 10 µM, first compound 0.0316 µM
[32] = second compound 10 µM, first compound 0.1 µM
[33] = second compound 10 µM, first compound 0.316 µM
[34] = second compound 10 µM, first compound 1 µM
[35] = second compound 10 µM, first compound 3.16 µM
[36] = second compound 10 µM, first compound 10 µM

Structure (SMILES): CC1COCCN1c1cc(-c2ccnn2C)c2ccnc(-c3ccn[nH]3)c2n1 (stereo not drawn) + Cc1cnc(CNC(=O)c2c(=O)c3ccc(N4CCCN(C)CC4)nc3n3c2sc2ccccc23)cn1
- IC50 (second compound 0.0316 µM): < 0.0316 µM
- IC50 (second compound 0.1 µM): < 0.0316 µM
- IC50 (second compound 0.316 µM): < 0.0316 µM
- IC50 (second compound 1 µM): < 0.0316 µM
- IC50 (second compound 3.16 µM): < 0.0316 µM
- IC50 (second compound 10 µM): < 0.0316 µM
- viability, T/C [1]: 16.8%
- viability, T/C [2]: 9.68%
- viability, T/C [3]: 7.59%
- viability, T/C [4]: 5.06%
- viability, T/C [5]: 4.01%
- viability, T/C [6]: 2.97%
- viability, T/C [7]: 10.3%
- viability, T/C [8]: 7.36%
- viability, T/C [9]: 6.21%
- viability, T/C [10]: 5.27%
- viability, T/C [11]: 3.92%
- viability, T/C [12]: 4.13%
- viability, T/C [13]: 9%
- viability, T/C [14]: 7.55%
- viability, T/C [15]: 6.04%
- viability, T/C [16]: 5.16%
- viability, T/C [17]: 4.14%
- viability, T/C [18]: 3.5%
- viability, T/C [19]: 8.34%
- viability, T/C [20]: 6.08%
- viability, T/C [21]: 5.92%
- viability, T/C [22]: 5.14%
- viability, T/C [23]: 3.89%
- viability, T/C [24]: 3%
- viability, T/C [25]: 7.12%
- viability, T/C [26]: 7.74%
- viability, T/C [27]: 7.15%
- viability, T/C [28]: 5.94%
- viability, T/C [29]: 3.88%
- viability, T/C [30]: 2.53%
- viability, T/C [31]: 6.76%
- viability, T/C [32]: 5.78%
- viability, T/C [33]: 7.42%
- viability, T/C [34]: 3.84%
- viability, T/C [35]: 4.68%
- viability, T/C [36]: 2.74%

Structure (SMILES): CC1COCCN1c1cc(C2(O)CC3CCC(C2)O3)c2cnn(-c3ccn[nH]3)c2n1 (stereo not drawn) + Cc1cnc(CNC(=O)c2c(=O)c3ccc(N4CCCN(C)CC4)nc3n3c2sc2ccccc23)cn1
- IC50 (second compound 0.0316 µM): < 0.0316 µM
- IC50 (second compound 0.1 µM): < 0.0316 µM
- IC50 (second compound 0.316 µM): < 0.0316 µM
- IC50 (second compound 1 µM): < 0.0316 µM
- IC50 (second compound 3.16 µM): < 0.0316 µM
- IC50 (second compound 10 µM): < 0.0316 µM
- viability, T/C [1]: 13.8%
- viability, T/C [2]: 8.52%
- viability, T/C [3]: 5.86%
- viability, T/C [4]: 3.91%
- viability, T/C [5]: 3.41%
- viability, T/C [6]: 2.21%
- viability, T/C [7]: 10.6%
- viability, T/C [8]: 7.17%
- viability, T/C [9]: 5.58%
- viability, T/C [10]: 4.56%
- viability, T/C [11]: 3.63%
- viability, T/C [12]: 2.02%
- viability, T/C [13]: 8.26%
- viability, T/C [14]: 6.06%
- viability, T/C [15]: 5.61%
- viability, T/C [16]: 4.38%
- viability, T/C [17]: 2.92%
- viability, T/C [18]: 2.02%
- viability, T/C [19]: 5.97%
- viability, T/C [20]: 6.1%
- viability, T/C [21]: 5.48%
- viability, T/C [22]: 3.78%
- viability, T/C [23]: 3.09%
- viability, T/C [24]: 1.97%
- viability, T/C [25]: 5.79%
- viability, T/C [26]: 6.38%
- viability, T/C [27]: 5%
- viability, T/C [28]: 2.96%
- viability, T/C [29]: 2.76%
- viability, T/C [30]: 1.84%
- viability, T/C [31]: 5.85%
- viability, T/C [32]: 5.61%
- viability, T/C [33]: 4.3%
- viability, T/C [34]: 4.69%
- viability, T/C [35]: 3.15%
- viability, T/C [36]: 1.81%

Structure (SMILES): CC1COCCN1c1cc(C2(S(C)(=N)=O)CC2)nc(-c2ccnc3[nH]ccc23)n1 (stereo not drawn) + Cc1cnc(CNC(=O)c2c(=O)c3ccc(N4CCCN(C)CC4)nc3n3c2sc2ccccc23)cn1
- IC50 (second compound 0.0316 µM): 0.205 µM
- IC50 (second compound 0.1 µM): < 0.0316 µM
- IC50 (second compound 0.316 µM): < 0.0316 µM
- IC50 (second compound 1 µM): < 0.0316 µM
- IC50 (second compound 3.16 µM): < 0.0316 µM
- IC50 (second compound 10 µM): < 0.0316 µM
- viability, T/C [1]: 71.7%
- viability, T/C [2]: 62.6%
- viability, T/C [3]: 43.3%
- viability, T/C [4]: 15.1%
- viability, T/C [5]: 31.4%
- viability, T/C [6]: 5.8%
- viability, T/C [7]: 35.4%
- viability, T/C [8]: 36%
- viability, T/C [9]: 16.5%
- viability, T/C [10]: 10.8%
- viability, T/C [11]: 12.8%
- viability, T/C [12]: 4.75%
- viability, T/C [13]: 26.8%
- viability, T/C [14]: 20.6%
- viability, T/C [15]: 13.7%
- viability, T/C [16]: 7.83%
- viability, T/C [17]: 13.6%
- viability, T/C [18]: 4.61%
- viability, T/C [19]: 13.3%
- viability, T/C [20]: 17.7%
- viability, T/C [21]: 13.3%
- viability, T/C [22]: 8.94%
- viability, T/C [23]: 11.2%
- viability, T/C [24]: 6.04%
- viability, T/C [25]: 11.9%
- viability, T/C [26]: 10.2%
- viability, T/C [27]: 10.9%
- viability, T/C [28]: 8.09%
- viability, T/C [29]: 10.3%
- viability, T/C [30]: 5.89%
- viability, T/C [31]: 9.84%
- viability, T/C [32]: 9.08%
- viability, T/C [33]: 9.32%
- viability, T/C [34]: 8.94%
- viability, T/C [35]: 9.55%
- viability, T/C [36]: 4.74%

Structure (SMILES): COc1ccc([C@@H](O)c2cc(-c3ncnc4cc(N5CCOCC5)ccc34)c(F)cc2Cl)nn1 + Cc1cnc(CNC(=O)c2c(=O)c3ccc(N4CCCN(C)CC4)nc3n3c2sc2ccccc23)cn1
- IC50 (second compound 0.0316 µM): 0.197 µM
- IC50 (second compound 0.1 µM): < 0.0316 µM
- IC50 (second compound 0.316 µM): < 0.0316 µM
- IC50 (second compound 1 µM): < 0.0316 µM
- IC50 (second compound 3.16 µM): < 0.0316 µM
- IC50 (second compound 10 µM): < 0.0316 µM
- viability, T/C [1]: 62.4%
- viability, T/C [2]: 64.7%
- viability, T/C [3]: 40.7%
- viability, T/C [4]: 11.1%
- viability, T/C [5]: 5.18%
- viability, T/C [6]: 5.46%
- viability, T/C [7]: 30.9%
- viability, T/C [8]: 34.5%
- viability, T/C [9]: 18.7%
- viability, T/C [10]: 7.37%
- viability, T/C [11]: 4.79%
- viability, T/C [12]: 3.15%
- viability, T/C [13]: 25.7%
- viability, T/C [14]: 25.2%
- viability, T/C [15]: 14.1%
- viability, T/C [16]: 6.16%
- viability, T/C [17]: 4.16%
- viability, T/C [18]: 3.4%
- viability, T/C [19]: 19.7%
- viability, T/C [20]: 17.8%
- viability, T/C [21]: 16.1%
- viability, T/C [22]: 6.86%
- viability, T/C [23]: 4.58%
- viability, T/C [24]: 2.36%
- viability, T/C [25]: 12%
- viability, T/C [26]: 9.89%
- viability, T/C [27]: 8.1%
- viability, T/C [28]: 4.31%
- viability, T/C [29]: 3.47%
- viability, T/C [30]: 1.18%
- viability, T/C [31]: 9.31%
- viability, T/C [32]: 9.19%
- viability, T/C [33]: 9.26%
- viability, T/C [34]: 4.56%
- viability, T/C [35]: 2.94%
- viability, T/C [36]: 1.32%
